Test results taken from patent US20110039721A1, “METHOD FOR PREDICTION ABOUT CARCINOGENICITY OF SUBSTANCE IN RODENT” (Chemicals Evaluation and Research Institute, priority 2007, published 2011).

Key:
liver = details: classification of the substance (Cr+/Cr−); cited from earlier work
rodent = details: classification of the substance (C+/C−); cited from earlier work
[1] = classification of the substance (M+/M−); cited from earlier work
[2] = system: mRNA expressed from the genes (A) to (D) in rat liver; assay: Behavior of genes (mRNA expression level, oligo-DNA microarray) in rat liver after 28-day oral administration; assay type: in vivo
Summary of the method: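 Liver mRNA measured by oligo-DNA microarray after 28 days of once-daily oral gavage in 5-week-old male F344 rats (n=4 per group), with vehicle controls given equal solvent volume. Significance threshold: 1.5-fold up or down versus control, with changes opposite in direction to other carcinogens counted as not significant.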

[3] = gene group (A), Unigene No. Rn.167075
[4] = gene group (C), Unigene No. Rn.120914

Cl.Cl.Nc1ccc(N)cc1 [TS059, p-Phenylenediamine 2HCl]
C−: Carcinogenicity (rodent)
M+: Mutagenicity by Ames test [1]
−: Behavior of gene caused by administration of chemical substance, Gene No. 4846 ([2]; gene group (A), Unigene No. Rn.144554) | Behavior of gene caused by administration of chemical substance, Gene No. 2026 [2, 3] | Behavior of gene caused by administration of chemical substance, Gene No. 4218 [2, 3] | Behavior of gene caused by administration of chemical substance, Gene No. 6182 ([2]; gene group (A), Unigene No. Rn.5834) | Behavior of gene caused by administration of chemical substance, Gene No. 5600 ([2]; gene group (A), Unigene No. Rn.9836) | Behavior of gene caused by administration of chemical substance, Gene No. 1494 ([2]; gene group (B), Unigene No. Rn.1430) | Behavior of gene caused by administration of chemical substance, Gene No. 2045 ([2]; gene group (B), Unigene No. Rn.19329) | Behavior of gene caused by administration of chemical substance, Gene No. 2203 ([2]; gene group (B), Unigene No. Rn.21240) | Behavior of gene caused by administration of chemical substance, Gene No. 533 ([2]; gene group (C), Unigene No. Rn.106184) | Behavior of gene caused by administration of chemical substance, Gene No. 725 ([2]; gene group (C), Unigene No. Rn.108075) | Behavior of gene caused by administration of chemical substance, Gene No. 1163 ([2]; gene group (C), Unigene No. Rn.11766) | Behavior of gene caused by administration of chemical substance, Gene No. 6303 ([2]; gene group (C), Unigene No. Rn.123063) | Behavior of gene caused by administration of chemical substance, Gene No. 5878 ([2]; gene group (C), Unigene No. Rn.143213) | Behavior of gene caused by administration of chemical substance, Gene No. 1131 ([2]; gene group (C), Unigene No. Rn.144946) | Behavior of gene caused by administration of chemical substance, Gene No. 6026 ([2]; gene group (C), Unigene No. Rn.167685) | Behavior of gene caused by administration of chemical substance, Gene No. 813 ([2]; gene group (C), Unigene No. Rn.201760) | Behavior of gene caused by administration of chemical substance, Gene No. 2494 ([2]; gene group (C), Unigene No. Rn.23969) | Behavior of gene caused by administration of chemical substance, Gene No. 6742 ([2]; gene group (C), Unigene No. Rn.9779)
Cr−: Liver carcinogenicity (liver)
+: Behavior of gene caused by administration of chemical substance, Gene No. 4973 ([2]; gene group (C), Unigene No. Rn.118529) | Behavior of gene caused by administration of chemical substance, Gene No. 4095 ([2]; gene group (C), Unigene No. Rn.119024) | Behavior of gene caused by administration of chemical substance, Gene No. 1334 [2, 4] | Behavior of gene caused by administration of chemical substance, Gene No. 6620 [2, 4] | Behavior of gene caused by administration of chemical substance, Gene No. 1562 ([2]; gene group (C), Unigene No. Rn.14744) | Behavior of gene caused by administration of chemical substance, Gene No. 1741 ([2]; gene group (C), Unigene No. Rn.1647) | Behavior of gene caused by administration of chemical substance, Gene No. 893 ([2]; gene group (C), Unigene No. Rn.164817) | Behavior of gene caused by administration of chemical substance, Gene No. 154 ([2]; gene group (C), Unigene No. Rn.185941) | Behavior of gene caused by administration of chemical substance, Gene No. 1993 ([2]; gene group (C), Unigene No. Rn.18728) | Behavior of gene caused by administration of chemical substance, Gene No. 2546 ([2]; gene group (C), Unigene No. Rn.24561) | Behavior of gene caused by administration of chemical substance, Gene No. 3776 ([2]; gene group (C), Unigene No. Rn.43232) | Behavior of gene caused by administration of chemical substance, Gene No. 3929 ([2]; gene group (C), Unigene No. Rn.4620) | Behavior of gene caused by administration of chemical substance, Gene No. 1119 ([2]; gene group (C), Unigene No. Rn.9757) | Behavior of gene caused by administration of chemical substance, Gene No. 5634 ([2]; gene group (C), Unigene No. Rn.9862) | Behavior of gene caused by administration of chemical substance, Gene No. 5726 ([2]; gene group (D), Unigene No. Rn.9939)
